One compound from patent US20160137714A1 (Thrasos Innovation, Inc., priority 2014, published 2016) can be followed below.

This series in a line: Ex-vivo plasma stability. Type of series: in vitro ADME, mouse or rat. The following applies: fresh plasma 37° C., 1 μM. Here is the method: Test article is added to fresh mouse or rat plasma at a final in-vial concentration of 1 μM. The peptide is incubated in a water bath at 37° C. over a time course that included the following points (in minutes): 0, 15, 30, 60, 120, 240, and 1440. After the incubation time is completed, a 50 μL aliquot of plasma is removed and proteins are precipitated using a solution containing internal standard (THR-123 at 150 ng/mL) in methanol with 0.5% acetic acid (v/v). The samples are centrifuged at 13,000 RPM for 5 minutes, and a 100 μL aliquot of supernatant is removed and transferred to a 96-well plate containing 200 μL of reconstitution solution (Water/MeOH/Acetic Acid/TFA, 60/40/0.2/0.05, v/v/v/v). A calibration curve and quality control (QC) samples are prepared in parallel in the same manner as the incubation samples. The calibration range for this assay is from 0.02 to 2.0 μM in rat or mouse plasma. The extracted calibrants, QC, and incubation samples are injected onto an AB SCIEX API 2000 LC-MS/MS system. Chromatographic separation is performed using a reversed-phase C18 HPLC column (Ace-3 C18, 30×2.1 mm, 3 μm). The solvent system consists of Milli-Q water, acetonitrile and formic acid. Analyte and internal standard are detected using the multiple reaction monitoring (MRM) scan mode. Calibration curves are generated by using a weighted (1/concentration) quadratic regression analysis of the peak area ratios (analyte/internal standard) versus the nominal concentration of the calibration standards. The concentration of the analyte in the incubation samples is determined by back-calculating the peak area ratios obtained using the quadratic regression.

Positions of bridges follow the written chain, without caps; N, C: chain ends. Residues, ends and D or L forms follow the SMILES beside them.

As to `CC(C)C[C@@H]1NC(=O)[C@H](C(C)C)NC(=O)[C@H](CC(N)=O)NC(=O)[C@H](CO)NC(=O)[C@H](CO)NC(=O)[C@H](CC(=O)O)NC(=O)[C@H](CC(=O)O)NC(=O)[C@H](Cc2ccccc2)NC(=O)[C@H](Cc2ccc(O)cc2)NC(=O)[C@@H](N)CSSC[C@@H](C(=O)N[C@@H](CCCCN)C(=O)N[C@@H](CCCCN)C(=O)N[C@@H](Cc2ccc(O)cc2)C(=O)N[C@@H](CCCNC(=N)N)C(=O)N[C@@H](CO)C(=O)O)NC1=O` [THR-123, Cys-Tyr-Phe-Asp-Asp-Ser-Ser-Asn-Val-Leu-Cys-Lys-Lys-Tyr-Arg-Ser] (H-CYFDDSSNVLCKKYRS-OH; disulfide 1-11), the share remaining at 1 h (60 min, read-out: Percent remaining 60 min) is 3.4%. In addition, the amount remaining at 2 h (120 min, read-out: Percent remaining 120 min) worked out at 2.3%.

As a reminder, the share remaining is the share of the starting amount still present when the sample was taken.
